Numbers after ± are expanded uncertainties.
What was measured:
[1] = Crystal; DTA
[2] = Molar enthalpy of transition or fusion; settings: Crystal; DSC

SMILES: CN(C)CCOC(c1ccccc1)c1ccccc1.Cl [2-diphenylmethoxy-N,N-dimethylethanamine hydrochloride]
- Normal melting temperature [1]: 169.2 ± 0.61 °C
- Molar enthalpy of transition or fusion [2]: 8.72 ± 0.406 kcal/mol

From the NIST ThermoML archive (doi:10.1016/j.jct.2015.09.032)
